Experiments:
[1] = system: HIV-1 strain A018A; type: cell-based, human; conditions: alone or in combination
Source text: The MAGI (Multinuclear Activation of a Galactosidase Indicator)-CCR-5 cell line is a clone derived from the HeLa cell line that expresses high levels of CD4. It has been transfected with a single integrated copy of a galactosidase gene under control of the HIV-1 long terminal repeat. β-Galactosidase is expressed upon production of HIV-1 Tat protein following one round of HIV-1 replication within the cell. The MAGI-CCR-5 cell line is derived from MAGI cells into which the CCR-5 HIV-1 co-receptor gene has been incorporated. These cells constitute an assay for early infection events and can be infected with either lymphocyte-tropic or macrophage-tropic HIV-1 strains.
Cells were cultured in polystyrene T-175 flasks in medium until cells were noted to be in log growth phase. Cells were then resuspended in fresh medium and aliquoted into 24-well polystyrene plates at 4×10^4 cells per well (1.0 ml total volume). After 24 hr incubation adherent cells were 30-40% confluent and medium was removed. Two hundred μl of fresh medium was then added to each well without (negative control) or with AAT and incubated for 1 hour. AAT diluent was added to a separate well at a volume equivalent to that of the highest concentration of AAT tested (control).
One hundred thirty TCID50 of HIV-1 and DEAE dextran in medium were added to each well. T-cell tropic HIV-1 strain A018A was used. After 2 hr incubation, medium was added to each well to adjust the final volume of each well to 500 μl. Cultures were incubated for 48 hr, which allowed infection of the MAGI-CCR-5 cells. Medium was aspirated and the cells fixed for 5.0 min at room temperature by adding 1.0 ml of a 1% formaldehyde/0.2% glutaraldehyde solution in phosphate buffered saline (PBS). Fixing solution was then aspirated and cells washed with PBS. This was followed by addition of galactosidase staining solution. Fifty minutes of incubation was followed by a blinded optical count of pigmented cells under a microscope.
The MAGI-CCR-5 cell assay evaluates early events in the HIV-1 infection process. These events include cell-surface binding and internalization, uncoating, reverse transcription and translation, protein processing and Tat activity. Binding of the tat protein to a reporter construct within the MAGI-CCR-5 cells enables quantification of these early HIV-1 events.

[2] = system: peritoneal cellular infiltrate; experiment: Thioglycolate-elicited peritoneal infiltration; type: in vivo, mice; conditions: 1 mg
Experimental: Peritoneal lavage was performed at 24 and 48 hours (thioglycolate) or on days 1-5 (allogeneic cells). For lavage, mice were anesthetized by isoflurane inhalation and injected immediately with 5.5 ml cold PBS containing 5% FCS and 5 U/ml heparin into the peritoneal cavity. After massaging the abdomen, peritoneal fluid was recovered with an 18.5 G needle and syringe. Recovered volumes ranged from 4.5 to 5.5 ml. Red blood cells were lysed (RBC lysing buffer, BD PharMingen) and cell counts were performed with a hemocytometer. Cells were then centrifuged and the pellet was resuspended in wash buffer containing 2% BSA, 0.1% sodium azide and 0.1% EDTA. Cells were kept at 4° C. throughout the staining procedure. Cells (at least 1×10^6/polypropylene vial) were incubated with FcγRIII/II receptor blocking antibodies (Table 1) for 10 min. […] The number of cells expressing a particular marker was calculated by multiplying percentages obtained from flow-cytometry by the concentration of cells in lavage fluid.
To address the possibility that AAT affects immune cell infiltration, two models of cell emigration were examined: thioglycolate (ThG)-elicited peritoneal infiltration, and cellular infiltration due to intraperitoneal injection of MHC-incompatible fibroblasts. […] Peritoneal lavage was performed 24 and 48 hours later and cells were counted and stained with specific antibodies for FACS analysis.

[3] = molecular target: porcine elastase (Sus scrofa, UniProt P00772); experiment: Elastase neutralization assay; type: biochemical; conditions: cleavable color-generating substrate
porcine elastase, sequence (P00772 27-266): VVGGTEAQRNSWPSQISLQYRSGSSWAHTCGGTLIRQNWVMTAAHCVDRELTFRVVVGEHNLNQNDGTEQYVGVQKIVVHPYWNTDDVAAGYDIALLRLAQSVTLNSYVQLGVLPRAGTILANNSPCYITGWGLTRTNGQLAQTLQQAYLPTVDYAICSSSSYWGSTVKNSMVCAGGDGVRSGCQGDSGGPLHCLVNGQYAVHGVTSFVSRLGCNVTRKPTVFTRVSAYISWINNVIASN
Experimental: The anti-serine protease function of AAT was examined for its role in the inhibitory effects on HIV-1. AAT was modified to reduce its serine protease inhibitory function to undetectable levels. Quantitation of the anti-protease activity of AAT was determined using an elastase neutralization assay. In this assay porcine elastase was incubated with a cleavable substrate. Upon cleavage of the substrate by elastase, a color-generating product was released, which was quantitated using a spectrophotometer. […] The inactivated AAT was then added to U1 cells, which was then stimulated with IL-18 and compared to native AAT.

[4] = molecular target: F-actin (filamentous actin); experiment: F-actin co-sedimentation, 150,000 x g, SDS-PAGE densitometry, eight replicates
[5] = system: HIV-1; experiment: U1 monocytic cell assay (HIV-1 p24 antigen); conditions: same experimental condition as in Example 7
Experimental: The U1 cell line was derived from human monocytic U937 cells into which 2 copies of HIV-1 provirus were incorporated into host genome. […] U1 cells were maintained in T-175 polystyrene flasks (Falcon, Becton Dickinson, Franklin Lakes, N.J.) in medium and used when in log phase growth. Cells were counted in a hemacytometer, examined for viability by Trypan blue exclusion (>95% for all experiments) and resuspended in fresh medium at 2×10^6 per ml. Two-hundred fifty μl of cell suspension were added to wells of 24-well polystyrene tissue culture plates (Falcon), followed by the addition of medium or AAT to produce the final concentration to be tested in a volume of 450 μl. After 1.0 hr of incubation (37° C., 5% CO2), 50 μl of medium (control) or stimulus diluted in medium were added to wells to produce the final concentration of stimulus to be tested. The final culture volumes were 500 μl and contained 1×10^6 cells per ml. […]
Data are presented as means±SEM. […] For data expressed as percent change, the values for p24 in control cultures (medium alone) were subtracted from those for each culture-containing stimulus. […] Percent p24 in cultures containing stimulus and AAT were calculated by dividing the measured p24 by that present in cultures containing stimulus alone. The resultant fraction was expressed as a percent.

[6] = system: NF-κB; experiment: IL-18-induced NF-κB expression; type: cell-based; conditions: induced by IL-18
Source text: P3 inh is also known as CE-2072 or (benzyloxycarbonyl)-L-valyl-N-[1-(2-(3-methylbenzyl)-1,3,4-oxadiazolyl]carbonyl)-2-(S)-methylpropyl]-L-prolinamide. Methods of preparing P3 inh and its derivatives are disclosed in U.S. Pat. No. 5,807,829, which is incorporated by reference herein. […] A band that corresponds to IL-18-induced NF-κB was much larger than NF-κB in controls not stimulated by IL-18. […] This was an unexpected observation as these compounds are not known to interfere with NF-κB expression.

[7] = system: F-actin; experiment: F-actin filament depolymerization; type: biochemical; conditions: added to preformed F-actin filaments
Experimental: In separate experiments (data not shown), F-actin filaments were produced and AAT was added to determine if AAT had depolymerization properties. As a control, Getsolin™, a protein that has known depolymerization properties, was added to F-actin filaments.

FLMFI: short peptide homologous/analogous to the C-terminal region of AAT
antiviral activity in MAGI cultures [1]: active

FVFLA: short peptide homologous/analogous to the C-terminal region of AAT
antiviral activity in MAGI cultures [1]: active

FLFVV: short peptide homologous/analogous to the C-terminal region of AAT
antiviral activity in MAGI cultures [1]: active

FLVFI: short peptide homologous/analogous to the C-terminal region of AAT
antiviral activity in MAGI cultures [1]: active

FLFCI: short peptide homologous/analogous to the C-terminal region of AAT
antiviral activity in MAGI cultures [1]: active

AVFLM: short peptide homologous/analogous to the C-terminal region of AAT
antiviral activity in MAGI cultures [1]: active

FVYLI: carboxyterminal peptide analyzed for its effect on HIV-1
antiviral activity in MAGI cultures [1]: active

FVALM: short peptide homologous/analogous to the C-terminal region of AAT
antiviral activity in MAGI cultures [1]: active

FVFLM: short peptide from the C-terminal region of AAT
antiviral activity in MAGI cultures [1]: active

Oxidized AAT: AAT oxidized by myeloperoxidase (MPO) system; loss of activity confirmed by elastase activity assay
cellular infiltrate [2]: did not affect cellular infiltrate | anti-protease (elastase inhibitory) activity [3]: Loss of activity

FMLLI: short peptide homologous/analogous to the C-terminal region of AAT
antiviral activity in MAGI cultures [1]: active

α1-antitrypsin (AAT), purified from human plasma
fold increase in actin-sedimented AAT against AAT only [4]: 1.7 fold | percentage of AAT sedimented in the presence of actin (AAT only = 100%) [4]: 268%

Cc1cccc(Cc2nnc(C(=O)C(NC(=O)[C@@H]3CCCN3C(=O)[C@@H](NC(=O)OCc3ccccc3)C(C)C)C(C)C)o2)c1 (stereo partly shown) [P3 inh]
anti-HIV-1 effect [5]: significant anti-HIV-1 effect | NF-κB expression [6]: reduced

FLFVL: short peptide homologous/analogous to the C-terminal region of AAT
antiviral activity in MAGI cultures [1]: active

FIIMI: short peptide homologous/analogous to the C-terminal region of AAT
antiviral activity in MAGI cultures [1]: active

FAFLM: short peptide homologous/analogous to the C-terminal region of AAT
antiviral activity in MAGI cultures [1]: active

FLMII: short peptide homologous/analogous to the C-terminal region of AAT
antiviral activity in MAGI cultures [1]: active

FLFLI: short peptide homologous/analogous to the C-terminal region of AAT
antiviral activity in MAGI cultures [1]: active

FVFAM: short peptide homologous/analogous to the C-terminal region of AAT
antiviral activity in MAGI cultures [1]: active

FLFFI: short peptide homologous/analogous to the C-terminal region of AAT
antiviral activity in MAGI cultures [1]: active

gelsolin
depolymerization of F-actin filaments [7]: actively dissociate

FLFAV: short peptide homologous/analogous to the C-terminal region of AAT
antiviral activity in MAGI cultures [1]: active

— US20090227518A1, “COMPOSITIONS AND METHODS FOR TREATING ACTIN-MEDIATED MEDICAL CONDITIONS” (The Regents of the University of Colorado, priority 2005, published 2009)
